Reference: ChEMBL document CHEMBL4311992, “Discovery of 3-(((9H-purin-6-yl)amino)methyl)-4,6-dimethylpyridin-2(1H)-one derivatives as novel tubulin polymerization inhibitors for treatment of cancer” (Eur J Med Chem, 2019)
Active and inactive are the calls of the source. The rule behind the calls is not given here.

Tests used:
[1] = biological target: Insulin receptor (Homo sapiens) (UniProt P06213); assay: Inhibition of recombinant human IR (1005 to 1310 residues) assessed as residual activity at 10 uM using KKSRGDYMTMQIG as substrate measured after 40 mins in presence of [gamma33P]ATP by scintillation counting method
Insulin receptor (Homo sapiens), sequence (P06213 28-758 limits assumed): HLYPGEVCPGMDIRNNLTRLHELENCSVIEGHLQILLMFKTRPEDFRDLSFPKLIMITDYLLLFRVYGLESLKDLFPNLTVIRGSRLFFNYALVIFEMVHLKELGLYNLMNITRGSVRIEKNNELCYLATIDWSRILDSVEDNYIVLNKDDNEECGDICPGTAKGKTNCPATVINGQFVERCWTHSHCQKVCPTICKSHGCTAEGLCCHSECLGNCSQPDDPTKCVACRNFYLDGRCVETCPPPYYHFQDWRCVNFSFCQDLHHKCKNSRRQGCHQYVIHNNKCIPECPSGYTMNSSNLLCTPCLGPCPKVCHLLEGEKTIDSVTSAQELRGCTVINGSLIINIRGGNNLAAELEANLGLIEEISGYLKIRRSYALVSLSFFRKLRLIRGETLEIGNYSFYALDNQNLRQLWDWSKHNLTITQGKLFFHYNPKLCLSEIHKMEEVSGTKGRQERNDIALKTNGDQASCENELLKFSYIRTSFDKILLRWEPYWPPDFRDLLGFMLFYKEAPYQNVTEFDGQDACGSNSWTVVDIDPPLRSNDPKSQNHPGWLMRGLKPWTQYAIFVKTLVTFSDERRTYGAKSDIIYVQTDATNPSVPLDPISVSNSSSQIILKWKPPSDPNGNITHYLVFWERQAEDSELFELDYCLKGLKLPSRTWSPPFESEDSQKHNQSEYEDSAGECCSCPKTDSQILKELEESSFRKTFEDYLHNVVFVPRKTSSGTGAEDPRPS
Insulin receptor (Homo sapiens), sequence (P06213 763-1382 limits assumed): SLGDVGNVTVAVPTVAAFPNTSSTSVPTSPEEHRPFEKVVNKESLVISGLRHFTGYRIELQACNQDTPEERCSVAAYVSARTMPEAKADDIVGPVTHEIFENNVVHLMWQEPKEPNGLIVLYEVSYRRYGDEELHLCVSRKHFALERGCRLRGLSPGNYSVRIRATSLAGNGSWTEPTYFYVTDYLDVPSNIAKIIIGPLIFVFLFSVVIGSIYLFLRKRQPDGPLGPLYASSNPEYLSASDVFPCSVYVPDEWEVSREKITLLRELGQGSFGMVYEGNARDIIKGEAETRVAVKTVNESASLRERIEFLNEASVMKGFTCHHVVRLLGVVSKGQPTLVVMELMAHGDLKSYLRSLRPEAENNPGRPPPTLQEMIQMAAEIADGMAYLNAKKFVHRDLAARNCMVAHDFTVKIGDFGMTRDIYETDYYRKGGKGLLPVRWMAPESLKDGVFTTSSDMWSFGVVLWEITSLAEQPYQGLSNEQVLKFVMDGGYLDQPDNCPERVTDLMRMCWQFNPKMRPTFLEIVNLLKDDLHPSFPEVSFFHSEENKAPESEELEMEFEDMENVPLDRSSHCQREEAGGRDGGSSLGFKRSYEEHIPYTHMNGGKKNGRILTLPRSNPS

Tubulin (Homo sapiens) = Tubulin (Homo sapiens) (UniProt P68371+Q9H4B7+P0DPH7+P68366+Q13509+Q71U36+P04350+Q3ZCM7+P07437+P68363+Q9BQE3+Q6PEY2+Q13885+Q9BVA1+Q9BUF5); assay: Disruption of microtubule network in human SW620 cells assessed as microtubule disorganization at 50 nM for 18 hrs by FITC/DAPI staining-based confocal microscopic analysis; type: cell-based
[2] = biological target: Tyrosine-protein kinase FRK (Homo sapiens) (UniProt P42685); assay: Inhibition of human PTK5 (218 to end residues) using GGEEEEYFELVKKKK as substrate measured after 40 mins in presence of [gamma33P]ATP by scintillation counting method; parameters: scale not given: the % may be the effect or the level left
HCT-116 = assay: Induction of apoptosis in human HCT116 cells assessed as late apoptotic cells at 25 nM measured after 48 hrs by Annexin V-FITC/propidium iodide staining-based flow cytometry (reference value: 3.87%); type: functional
[3] = biological target: Cyclin-dependent kinase 2/cyclin E1 (Homo sapiens) (UniProt P24864+P24941); assay: Inhibition of recombinant full-length human CDK2/cyclinE assessed as residual activity at 10 uM using histone H1 as substrate measured after 40 mins in presence of [gamma33P]ATP by scintillation counting method; type: protein-complex assay
CT26 = assay: Antiproliferative activity against mouse CT26 cells assessed as reduction in cell viability after 72 hrs by MTT assay; type: functional, cell-based; details: CT26, 72 h
[4] = biological target: Tyrosine-protein kinase JAK1 (Homo sapiens) (UniProt P23458); assay: Inhibition of recombinant human JAK1 (866 to end residues) assessed as residual activity at 10 uM using GEEPLYWSFPAKKK as substrate measured after 40 mins in presence of [gamma33P]ATP by scintillation counting method
[5] = biological target: Serine/threonine-protein kinase Nek2 (Homo sapiens) (UniProt P51955); assay: Inhibition of recombinant full-length human NEK2 assessed as residual activity at 10 uM using myelin basic protein as substrate measured after 40 mins in presence of [gamma33P]ATP by scintillation counting method
Serine/threonine-protein kinase Nek2 (Homo sapiens), sequence (P51955 whole entry): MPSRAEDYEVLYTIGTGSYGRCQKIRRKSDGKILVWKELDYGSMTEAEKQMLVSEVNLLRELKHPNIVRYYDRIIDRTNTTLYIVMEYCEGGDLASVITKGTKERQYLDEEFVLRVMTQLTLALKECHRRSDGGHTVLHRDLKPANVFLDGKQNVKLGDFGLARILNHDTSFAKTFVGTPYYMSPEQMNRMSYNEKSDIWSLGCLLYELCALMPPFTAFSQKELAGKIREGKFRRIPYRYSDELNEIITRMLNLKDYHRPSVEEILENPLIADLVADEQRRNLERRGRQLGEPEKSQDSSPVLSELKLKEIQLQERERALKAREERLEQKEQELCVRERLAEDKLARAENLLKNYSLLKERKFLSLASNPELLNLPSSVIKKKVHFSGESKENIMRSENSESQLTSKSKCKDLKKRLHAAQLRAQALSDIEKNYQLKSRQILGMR

Homo sapiens [6] = species on record: Homo sapiens; assay: Inhibition of recombinant human DDR1 V833L mutant (492 to end residues) assessed as residual activity at 10 uM using KKKSPGEYVNIEFG as substrate measured after 40 mins in presence of [gamma33P]ATP by scintillation counting method
[7] = biological target: Serine/threonine-protein kinase DCLK3 (Homo sapiens) (UniProt Q9C098); assay: Inhibition of recombinant human DCAMKL3 (345 to end residues) assessed as residual activity at 10 uM using KKLNRTLSFAEPG as substrate measured after 40 mins in presence of [gamma33P]ATP by scintillation counting method
Serine/threonine-protein kinase DCLK3 (Homo sapiens), sequence (Q9C098 whole entry): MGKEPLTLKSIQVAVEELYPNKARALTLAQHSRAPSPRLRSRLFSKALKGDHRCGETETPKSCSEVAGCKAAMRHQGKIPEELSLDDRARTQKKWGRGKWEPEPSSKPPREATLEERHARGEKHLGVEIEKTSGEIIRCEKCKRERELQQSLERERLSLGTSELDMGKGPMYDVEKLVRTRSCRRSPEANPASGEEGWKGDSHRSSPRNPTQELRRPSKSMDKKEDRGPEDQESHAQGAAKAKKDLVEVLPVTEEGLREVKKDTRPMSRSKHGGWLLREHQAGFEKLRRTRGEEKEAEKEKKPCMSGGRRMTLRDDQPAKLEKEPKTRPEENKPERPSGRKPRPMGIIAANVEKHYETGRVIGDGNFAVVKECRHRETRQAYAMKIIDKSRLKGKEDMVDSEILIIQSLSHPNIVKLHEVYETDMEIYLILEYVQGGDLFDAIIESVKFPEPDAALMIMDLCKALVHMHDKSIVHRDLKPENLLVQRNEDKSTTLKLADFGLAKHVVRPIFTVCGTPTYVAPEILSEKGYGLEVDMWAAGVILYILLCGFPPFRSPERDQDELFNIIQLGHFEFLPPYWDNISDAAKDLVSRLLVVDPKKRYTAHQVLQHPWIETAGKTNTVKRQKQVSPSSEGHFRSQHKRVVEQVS

Homo sapiens [8] = species on record: Homo sapiens; assay: Inhibition of recombinant human BrSK2 S251I mutant (2 to end residues) assessed as residual activity at 10 uM using KKLNRTLSFAEPG as substrate measured after 40 mins in presence of [gamma33P]ATP by scintillation counting method
[9] = biological target: PI3K p110 beta/p85 alpha (Homo sapiens) (UniProt P27986+P42338); assay: Inhibition of recombinant full-length human PI3K p110beta/p85alpha assessed as residual activity at 10 uM using phosphatidylinositol-4, 5-bisphosphate as substrate measured after 40 mins by fluorescence assay; type: protein-complex assay
[10] = Toxicity in nude BALB/c mouse assessed as change in glucose level at 40 to 80 mg/kg, po once daily for 4 weeks measured post-last dose; type: organism-based; details: in vivo, 672 h
[11] = biological target: cGMP-dependent protein kinase 1 (Homo sapiens) (UniProt Q13976); assay: Inhibition of recombinant full-length human PKG1beta assessed as residual activity at 10 uM using RRRLSFAEPG as substrate measured after 40 mins in presence of [gamma33P]ATP by scintillation counting method
[12] = Toxicity in nude BALB/c mouse assessed as change in WBC level at 40 to 80 mg/kg, po once daily for 4 weeks measured post-last dose; type: organism-based; details: in vivo, 672 h
Homo sapiens [13] = species on record: Homo sapiens; assay: Inhibition of recombinant full-length human ATRIP/ATR M211T mutant assessed as residual activity at 10 uM using GST-cMyc-p53 as substrate measured after 40 mins by fluorescence assay
[14] = biological target: Calcium/calmodulin-dependent protein kinase type II subunit alpha (Homo sapiens) (UniProt Q9UQM7); assay: Inhibition of recombinant full-length human CaMK2alpha assessed as residual activity at 10 uM using calmodulin as substrate measured after 40 mins in presence of [gamma33P]ATP by scintillation counting method
[15] = biological target: Casein kinase I isoform gamma-2 (Homo sapiens) (UniProt P78368); assay: Inhibition of recombinant human CK1gamma2 (18 to end residues) assessed as residual activity at 10 uM using KRRRALS(p)VASLPGL as substrate measured after 40 mins in presence of [gamma33P]ATP by scintillation counting method
Casein kinase I isoform gamma-2 (Homo sapiens), sequence (P78368 whole entry, looked up, canonical isoform): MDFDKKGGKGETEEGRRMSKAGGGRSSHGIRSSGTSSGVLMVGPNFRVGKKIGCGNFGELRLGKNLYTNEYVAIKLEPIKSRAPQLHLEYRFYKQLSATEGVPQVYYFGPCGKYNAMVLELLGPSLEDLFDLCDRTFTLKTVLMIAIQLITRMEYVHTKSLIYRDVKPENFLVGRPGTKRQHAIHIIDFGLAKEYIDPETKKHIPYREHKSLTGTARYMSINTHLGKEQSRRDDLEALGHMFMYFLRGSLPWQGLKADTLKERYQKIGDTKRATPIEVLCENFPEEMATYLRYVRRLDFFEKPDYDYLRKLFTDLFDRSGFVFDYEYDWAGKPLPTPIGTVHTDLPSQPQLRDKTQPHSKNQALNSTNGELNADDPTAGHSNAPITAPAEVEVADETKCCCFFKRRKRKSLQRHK

[16] = biological target: Calcium/calmodulin-dependent protein kinase type II subunit delta (Homo sapiens) (UniProt Q13557); assay: Inhibition of recombinant full-length human CaMK2delta assessed as residual activity at 10 uM using calmodulin as substrate measured after 40 mins in presence of [gamma33P]ATP by scintillation counting method
Calcium/calmodulin-dependent protein kinase type II subunit delta (Homo sapiens), sequence (Q13557 whole entry): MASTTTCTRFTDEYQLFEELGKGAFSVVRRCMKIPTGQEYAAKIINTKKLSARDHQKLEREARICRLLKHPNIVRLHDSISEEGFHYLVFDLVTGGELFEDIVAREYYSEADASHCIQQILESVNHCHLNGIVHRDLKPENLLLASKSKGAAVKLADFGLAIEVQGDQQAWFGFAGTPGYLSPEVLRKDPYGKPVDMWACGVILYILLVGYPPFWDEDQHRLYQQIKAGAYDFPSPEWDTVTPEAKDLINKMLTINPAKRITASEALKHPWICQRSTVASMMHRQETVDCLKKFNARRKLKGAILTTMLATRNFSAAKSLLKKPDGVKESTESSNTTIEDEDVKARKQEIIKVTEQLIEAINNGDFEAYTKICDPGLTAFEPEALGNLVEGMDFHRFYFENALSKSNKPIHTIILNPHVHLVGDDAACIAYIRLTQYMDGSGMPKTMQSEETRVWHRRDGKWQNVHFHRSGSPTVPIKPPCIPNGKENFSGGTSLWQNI

[17] = biological target: Ribosomal protein S6 kinase alpha-3 (Homo sapiens) (UniProt P51812); assay: Inhibition of human Rsk2 (2 to end residues) using KKKNRTLSVA as substrate measured after 40 mins in presence of [gamma33P]ATP by scintillation counting method; parameters: scale not given: the % may be the effect or the level left
Ribosomal protein S6 kinase alpha-3 (Homo sapiens), sequence (P51812 whole entry): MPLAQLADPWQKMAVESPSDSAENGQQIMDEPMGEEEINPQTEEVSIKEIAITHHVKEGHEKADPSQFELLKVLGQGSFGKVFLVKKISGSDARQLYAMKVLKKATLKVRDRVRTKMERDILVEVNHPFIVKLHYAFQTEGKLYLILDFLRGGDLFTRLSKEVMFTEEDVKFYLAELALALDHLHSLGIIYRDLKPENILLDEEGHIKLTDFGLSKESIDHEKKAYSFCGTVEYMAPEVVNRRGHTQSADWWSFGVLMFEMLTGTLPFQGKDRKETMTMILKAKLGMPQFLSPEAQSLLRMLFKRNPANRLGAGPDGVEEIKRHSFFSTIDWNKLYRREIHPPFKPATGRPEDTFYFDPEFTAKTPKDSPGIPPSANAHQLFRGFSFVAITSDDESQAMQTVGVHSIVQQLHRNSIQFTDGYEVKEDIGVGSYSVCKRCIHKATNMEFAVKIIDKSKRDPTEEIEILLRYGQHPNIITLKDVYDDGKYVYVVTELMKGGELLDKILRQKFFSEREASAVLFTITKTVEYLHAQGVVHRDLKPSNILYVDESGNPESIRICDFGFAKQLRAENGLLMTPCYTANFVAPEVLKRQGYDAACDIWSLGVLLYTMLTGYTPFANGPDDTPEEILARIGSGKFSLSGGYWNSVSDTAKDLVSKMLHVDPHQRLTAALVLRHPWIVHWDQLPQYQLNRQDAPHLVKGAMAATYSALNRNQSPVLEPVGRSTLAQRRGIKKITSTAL

[18] = biological target: Mitogen-activated protein kinase kinase kinase 2 (Homo sapiens) (UniProt Q9Y2U5); assay: Inhibition of recombinant full-length human MEKK2 assessed as residual activity at 10 uM using myelin basic protein as substrate measured after 40 mins in presence of [gamma33P]ATP by scintillation counting method
Mitogen-activated protein kinase kinase kinase 2 (Homo sapiens), sequence (Q9Y2U5 whole entry): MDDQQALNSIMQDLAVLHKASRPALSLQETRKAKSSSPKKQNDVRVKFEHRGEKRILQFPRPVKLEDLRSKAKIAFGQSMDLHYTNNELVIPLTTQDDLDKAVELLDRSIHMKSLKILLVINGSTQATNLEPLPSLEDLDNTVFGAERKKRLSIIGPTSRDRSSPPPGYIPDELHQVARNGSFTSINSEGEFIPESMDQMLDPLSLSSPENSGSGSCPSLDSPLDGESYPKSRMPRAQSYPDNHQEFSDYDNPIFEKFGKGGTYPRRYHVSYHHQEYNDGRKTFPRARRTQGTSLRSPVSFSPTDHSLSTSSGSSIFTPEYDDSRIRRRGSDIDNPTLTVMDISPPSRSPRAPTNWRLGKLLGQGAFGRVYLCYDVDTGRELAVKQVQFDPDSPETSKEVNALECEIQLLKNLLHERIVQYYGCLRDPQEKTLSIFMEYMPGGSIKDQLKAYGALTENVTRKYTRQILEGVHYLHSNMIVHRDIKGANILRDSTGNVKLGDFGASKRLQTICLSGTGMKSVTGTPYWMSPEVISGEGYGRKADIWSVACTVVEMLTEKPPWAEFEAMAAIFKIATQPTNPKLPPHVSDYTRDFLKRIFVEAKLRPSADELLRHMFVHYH

[19] = biological target: Phosphatidylinositol 4-phosphate 5-kinase type-1 alpha (Homo sapiens) (UniProt Q99755); assay: Inhibition of recombinant full-length human PIP5K1alpha assessed as residual activity at 10 uM using phosphatidylinositol 4-phosphate as substrate measured after 40 mins by HTRF assay
[20] = biological target: G protein-coupled receptor kinase 3 (Homo sapiens) (UniProt P35626); assay: Inhibition of recombinant full-length human GRK3 assessed as residual activity at 10 uM using casein as substrate measured after 40 mins in presence of [gamma33P]ATP by scintillation counting method
[21] = biological target: Serine/threonine-protein kinase 16 (Homo sapiens) (UniProt O75716); assay: Inhibition of human STK16 assessed as residual activity at 10 uM by radiometric method
Serine/threonine-protein kinase 16 (Homo sapiens), sequence (O75716 whole entry): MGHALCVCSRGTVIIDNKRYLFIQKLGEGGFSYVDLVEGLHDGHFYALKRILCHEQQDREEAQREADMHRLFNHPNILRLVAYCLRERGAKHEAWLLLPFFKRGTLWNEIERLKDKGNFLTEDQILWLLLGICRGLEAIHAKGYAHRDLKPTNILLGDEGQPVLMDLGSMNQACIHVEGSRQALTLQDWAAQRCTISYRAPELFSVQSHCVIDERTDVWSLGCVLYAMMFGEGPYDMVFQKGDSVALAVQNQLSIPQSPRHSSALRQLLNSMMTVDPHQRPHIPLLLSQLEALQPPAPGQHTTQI

SW-620 = assay: Induction of apoptosis in human SW620 cells assessed as viable cells at 50 nM measured after 48 hrs by Annexin V-FITC/propidium iodide staining-based flow cytometry (reference value: 94.7%); type: functional; details: SW-620, 48 h, read-out: Activity

Cc1cc(C)c(CNc2nc(Cl)nc3c2ncn3C2CCCC2)c(=O)[nH]1
Activity [1]: 116%
Activity (Tubulin (Homo sapiens)): Active
Activity [2]: 102%
Activity (HCT-116): 17.1%
Activity [3]: 115%
IC50 (CT26): 45.5 nM
Activity [4]: 97.5%
Activity [5]: 101%
Activity (Homo sapiens [6]): 114%
Activity [7]: 110%
Activity (Homo sapiens [8]): 123%
Activity [9]: 104%
Activity [10]: Non-Toxic
Activity [11]: 112%
Activity [12]: Non-Toxic
Activity (Homo sapiens [13]): 106%
Activity [14]: 92%
Activity [15]: 104%
Activity [16]: 120%
Activity [17]: 100%
Activity [18]: 104%
Activity [19]: 100%
Activity [20]: 100%
Activity [21]: 102%
viability at 0.05 µM (SW-620): 83.4%
